Assay results from article PMC4426599, “Structure and mechanism of an antibiotics-synthesizing 3-hydroxykynurenine C-methyltransferase” (Scientific Reports, 2015).

How the values were obtained:
[1] = biological target: T1, Ss-SibL (SibL) (Streptosporangium sibiricum, UniProt C0LTM6); assay: X-ray crystal structure of ternary complex with SAH, […] A; format: binding; conditions: SAH bound; D-/L-3-HK used in crystallization; pH 7.7; substrate site
T1 construct: recombinant His6-tagged (pET-21b), E. coli BL21(DE3), Ni-NTA and gel filtration; homodimer; tag removal not described

[2] = biological target: T1, Ss-SibL (SibL); assay: X-ray crystal structure of binary complex, […] A; format: binding; conditions: crystals obtained by using SAM, modelled as SAH; pH 7.7; SAM site; also bound in ternary complex 4U1Q
[3] = biological target: the molecule itself; assay: crystal structure; crystals of apo Ss-SibL, of the binary complex with SAH and of the ternary complex with SAH and 3-HK; sitting-drop vapour diffusion; homodimer seen in the crystal

## Nc1c(O)cccc1C(=O)C[C@H](N)C(=O)O [L-3-HK]
[1]
  X-ray crystal structure of ternary complex with SAH, 2.1 A: the electron densities clearly indicate that the bound substrate is L-3-HK

## Nc1ncnc2c1ncn2[C@@H]1O[C@H](CSCC[C@H](N)C(=O)O)[C@@H](O)[C@H]1O [S-adenosylhomocysteine]
[2]
  X-ray crystal structure of binary complex, 2.6 A: the binary Ss-SibL/SAH and the ternary Ss-SibL/SAH/3HK complex crystals diffracted to higher resolution

B1: Streptosporangium sibiricum SibL (enzyme)
chain: MSSELSALVPVLFGHAAFQQLNAGCQLGLFELLHERGPLSAEEVADALRLPRRSADILLLGTTALGLSTVTDGGYRNGAPIGAAFRDGLWPVLRDIVQYQDKIAYQPAADYVESLRTGQNAGIRHFPGTTRDLYSRLAAVPGLEELFYRGMHAWSQLSNPVLLAQPDFTRVHRVLDVGGGDAVNAVALARAHPSLRVTVLDRPGALEVARKTIAEAGLEERVRTHAADIFTDSYPAGHDCVLFAHQLVIWSPEQNLTLLRKAYDAVEPGGRVLVFNAFTDDDRTGPLYAALDNVYFTTLPFRHSTIHRWADCESWLREAGFTDVGRTAPPGWTPHGVVSGSRPR
notes: SibL, SAM-dependent 3-hydroxykynurenine C-methyltransferase of Streptosporangium sibiricum; amplified by PCR from S. sibiricum genomic DNA and cloned into pET-21b; Homodimer in the crystals; The ternary complex was first phased with selenomethionine-substituted protein; also called Ss-SibL; 3-hydroxykynurenine C-methyltransferase; source: E. coli BL21 (DE3), purified (Ni-NTA, Superdex-200 size …)
[3]
  stoichiometry N: 2
